In patent US20230173086A1, “PEPTIDE CONJUGATES AND THERAPEUTIC AGENTS HAVING IMPROVED PHARMACOLOGICAL AND PHARMACOKINETIC PROPERTIES” (Resolute Bio, Inc., priority 2021, published 2023):
Like-named read-outs stand apart in the source and are kept apart here.

Tested on: RBCs
Description: RBC binding ranked by MESF (molecules of equivalent soluble fluorescence), or intensity of fluorescent signal measured when RBCs were incubated with a given concentration of peptide.
High=MESF value>1000 fluorescent units
Medium=MESF Value from 300 to 1000 fluorescent units
Low=MESF Value from 15 to 300 fluorescent units

[1] = Table 3, structurally-diverse all-D-peptides

Row | Substance | Classification of RBC binding properties (MESF) (Table 2, 1a analogs) | Classification of RBC binding properties (MESF) [1]
1 | H-phe-trp-ser-pro-trp-ala-met-met-tyr-lys-Gly-Gly-Gly-lys(Biotin)-NH2 [Peptide 2i] | Low (MESF Value from 15 to 300 fluorescent units) | –
2 | H-phe-trp-tyr-pro-trp-ala-met-met-tyr-lys-Gly-Gly-Gly-lys(Biotin)-NH2 [Peptide 2j] | Low (MESF Value from 15 to 300 fluorescent units) | –
3 | H-phe-trp-tyr-val-his-thr-thr-Gly-trp-lys-Gly-Gly-Gly-lys(Biotin)-NH2 [Peptide 3j] | – | Does Not Bind (MESF Value below 15 fluorescent units)
4 | H-phe-trp-val-pro-phe-trp-trp-lys-thr-lys-Gly-Gly-Gly-lys(Biotin)-NH2 [Peptide 3d] | – | Low (MESF Value from 15 to 300 fluorescent units)
5 | H-phe-tyr-tyr-pro-trp-pro-val-thr-tyr-lys-Gly-Gly-Gly-lys(Biotin)-NH2 [Peptide 3k] | – | Does Not Bind (MESF Value below 15 fluorescent units)
6 | H-pro-his-his-pro-phe-ala-leu-phe-leu-lys-Gly-Gly-Gly-lys(Biotin)-NH2 [Peptide 3q] | – | Medium (MESF Value from 300 to 1000 fluorescent units)
7 | H-pro-phe-tyr-thr-tyr-his-trp-tyr-ser-lys-Gly-Gly-Gly-lys(Biotin)-NH2 [Peptide 3p] | – | Does Not Bind (MESF Value below 15 fluorescent units)
8 | H-ser-Gly-val-asp-thr-tyr-leu-thr-his-lys-Gly-Gly-Gly-lys(Biotin)-NH2 [Peptide 3r] | – | Medium (MESF Value from 300 to 1000 fluorescent units)
9 | H-ser-trp-his-pro-val-trp-Gly-trp-leu-lys-Gly-Gly-Gly-lys(Biotin)-NH2 [Peptide 3g] | – | Low (MESF Value from 15 to 300 fluorescent units)
10 | H-trp-tyr-leu-pro-pro-leu-trp-his-ala-lys-Gly-Gly-Gly-lys(Biotin)-NH2 [Peptide 3u] | – | Does Not Bind (MESF Value below 15 fluorescent units)
11 | H-trp-val-pro-Gly-phe-trp-tyr-his-tyr-lys-Gly-Gly-Gly-lys(Biotin)-NH2 [Peptide 3t] | – | Low (MESF Value from 15 to 300 fluorescent units)
12 | H-tyr-phe-leu-tyr-leu-pro-tyr-his-thr-lys-Gly-Gly-Gly-lys(Biotin)-NH2 [Peptide 3v] | – | Low (MESF Value from 15 to 300 fluorescent units)
13 | H-tyr-trp-val-pro-met-trp-val-his-val-lys-Gly-Gly-Gly-lys(Biotin)-NH2 [Peptide 3w] | – | Low (MESF Value from 15 to 300 fluorescent units)
14 | H-val-phe-his-pro-phe-trp-Gly-tyr-phe-lys-Gly-Gly-Gly-lys(Biotin)-NH2 [Peptide 3s] | – | Does Not Bind (MESF Value below 15 fluorescent units)
